Source: patent US20120129833A1, “CYCLIC KETOENOLS FOR THERAPY” (BAYER PHARMA AKTIENGESELLSCHAFT, priority 2010, published 2012)

What was measured:
[1] = molecular target: T1, recombinant human ACC1 (acetyl-CoA carboxylase 1) (Homo sapiens, UniProt Q13085); assay: Human ACC1 enzyme assay (HTRF ADP detection); assay type: biochemical; settings: 50 μM ATP, 20 μM acetyl-CoA, 15 min pre-incubation, 20 min at 22° C.; read-out: ACC 1 IC50;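 also: ADP by-product quantified by competitive HTRF immunoassay with europium cryptate anti-ADP antibody and d2-labelled ADP, read after 1 h binding at 22 °C, enzyme near 2.5 ng/µl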
T1 construct: NM_198834, amino acids 39—end; FLAG (C); made in house; host or cells: baculovirus-transfected insect cells (Hi5)
Protocol: The basic principle of the assay is the measurement of adenosine diphosphate (ADP), which is formed as a by-product, by means of an HTRF®-based competitive immunoassay (HTRF=Homogeneous Time Resolved Fluorescence).
(§1) The amount of complex of d2-labelled ADP and europium cryptate-labelled anti-ADP antibody was then determined by measuring the resonance energy transfer of europium cryptate to d2.

[2] = molecular target: T2, ACC2 (acetyl-CoA carboxylase 2) (Homo sapiens, UniProt O00763); assay: Human ACC2 enzyme assay (HTRF ADP detection); assay type: biochemical; settings: 20 μM acetyl-CoA, 15 min pre-incubation, 20 min at 22° C.; read-out: ACC 2 IC50
T2 construct: catalogue no; 50201, amino acids 39—end, expressed in baculovirus-transfected Sf9 insect cells; His (C); purchased BPS Bioscience (San Diego, Calif.) 50201; host or cells: baculovirus-transfected Sf9 insect cells
T2 sequence (O00763 39-2458 limits assumed): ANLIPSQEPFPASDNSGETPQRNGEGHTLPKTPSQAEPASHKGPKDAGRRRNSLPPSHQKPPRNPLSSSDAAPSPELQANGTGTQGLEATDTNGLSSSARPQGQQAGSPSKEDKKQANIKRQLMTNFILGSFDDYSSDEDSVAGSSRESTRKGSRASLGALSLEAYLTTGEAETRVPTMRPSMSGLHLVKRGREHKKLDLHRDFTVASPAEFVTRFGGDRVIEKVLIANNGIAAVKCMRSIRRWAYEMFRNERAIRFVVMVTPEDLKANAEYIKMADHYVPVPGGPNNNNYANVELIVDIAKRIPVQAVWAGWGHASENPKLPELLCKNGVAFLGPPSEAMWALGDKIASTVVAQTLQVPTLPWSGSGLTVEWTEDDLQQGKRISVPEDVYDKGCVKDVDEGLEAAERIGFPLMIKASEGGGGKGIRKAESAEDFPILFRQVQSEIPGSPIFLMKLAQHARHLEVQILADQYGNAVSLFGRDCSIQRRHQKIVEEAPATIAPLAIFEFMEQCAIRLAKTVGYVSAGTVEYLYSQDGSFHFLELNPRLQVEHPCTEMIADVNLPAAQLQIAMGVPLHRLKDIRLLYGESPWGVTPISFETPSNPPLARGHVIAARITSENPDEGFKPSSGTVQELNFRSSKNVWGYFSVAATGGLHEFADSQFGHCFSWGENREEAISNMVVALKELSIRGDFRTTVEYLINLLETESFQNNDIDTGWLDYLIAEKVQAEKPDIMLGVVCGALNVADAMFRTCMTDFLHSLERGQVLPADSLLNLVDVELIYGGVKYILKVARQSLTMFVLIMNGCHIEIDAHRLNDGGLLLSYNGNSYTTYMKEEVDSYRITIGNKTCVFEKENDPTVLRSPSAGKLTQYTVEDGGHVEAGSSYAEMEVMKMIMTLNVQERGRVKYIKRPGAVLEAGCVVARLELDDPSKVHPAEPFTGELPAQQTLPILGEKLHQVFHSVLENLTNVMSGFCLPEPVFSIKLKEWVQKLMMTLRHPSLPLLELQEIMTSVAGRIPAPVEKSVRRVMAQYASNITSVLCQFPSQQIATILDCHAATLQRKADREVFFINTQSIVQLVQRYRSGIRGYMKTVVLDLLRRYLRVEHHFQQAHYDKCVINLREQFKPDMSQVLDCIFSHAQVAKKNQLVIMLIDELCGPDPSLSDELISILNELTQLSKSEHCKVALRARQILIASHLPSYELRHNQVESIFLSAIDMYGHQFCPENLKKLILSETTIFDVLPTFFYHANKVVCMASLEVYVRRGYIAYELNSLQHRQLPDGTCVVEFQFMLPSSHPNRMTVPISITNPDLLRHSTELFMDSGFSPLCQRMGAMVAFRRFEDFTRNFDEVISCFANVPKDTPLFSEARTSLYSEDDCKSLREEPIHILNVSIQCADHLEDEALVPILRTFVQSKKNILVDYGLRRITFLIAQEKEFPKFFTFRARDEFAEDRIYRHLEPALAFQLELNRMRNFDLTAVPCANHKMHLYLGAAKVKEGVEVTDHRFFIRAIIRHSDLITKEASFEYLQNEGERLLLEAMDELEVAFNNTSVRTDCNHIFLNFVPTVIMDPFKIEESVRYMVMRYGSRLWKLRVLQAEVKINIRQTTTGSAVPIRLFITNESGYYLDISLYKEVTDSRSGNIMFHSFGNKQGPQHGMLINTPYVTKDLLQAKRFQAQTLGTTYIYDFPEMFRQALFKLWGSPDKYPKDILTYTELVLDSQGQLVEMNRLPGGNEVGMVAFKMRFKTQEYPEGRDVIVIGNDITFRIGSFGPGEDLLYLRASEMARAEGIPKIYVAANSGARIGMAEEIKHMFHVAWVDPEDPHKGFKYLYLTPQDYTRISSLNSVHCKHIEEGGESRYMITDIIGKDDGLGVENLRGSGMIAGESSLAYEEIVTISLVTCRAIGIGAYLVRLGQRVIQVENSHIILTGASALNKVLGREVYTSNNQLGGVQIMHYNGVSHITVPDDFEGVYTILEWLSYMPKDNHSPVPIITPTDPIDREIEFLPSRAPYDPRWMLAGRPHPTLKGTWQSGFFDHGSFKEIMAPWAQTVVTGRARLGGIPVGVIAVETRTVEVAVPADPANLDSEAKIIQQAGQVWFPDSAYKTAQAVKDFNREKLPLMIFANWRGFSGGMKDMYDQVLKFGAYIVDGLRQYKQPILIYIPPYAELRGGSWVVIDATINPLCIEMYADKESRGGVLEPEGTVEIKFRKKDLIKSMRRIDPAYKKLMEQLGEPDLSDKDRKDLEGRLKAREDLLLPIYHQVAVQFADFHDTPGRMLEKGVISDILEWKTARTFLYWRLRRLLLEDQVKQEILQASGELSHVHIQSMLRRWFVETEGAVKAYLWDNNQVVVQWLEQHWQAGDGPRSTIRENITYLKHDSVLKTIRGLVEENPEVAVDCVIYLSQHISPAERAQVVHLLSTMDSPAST
Protocol: The inhibitory activity of the substances of this invention with regard to acetyl-CoA carboxylase 2 (ACC2) was measured using the ACC2 assay described in the paragraphs below. The basic principle of the assay is the measurement of adenosine diphosphate (ADP), which is formed as a by-product, by means of an HTRF®-based competitive immunoassay (HTRF=Homogeneous Time Resolved Fluorescence).
as §1

Compound | IC50 [1] [nM] | IC50 [2] [µM]
Cc1ccc(-c2ccc(Cl)cc2)cc1C1=C(O)CN(C2CC2)C1=O [Example 1-18, 3-(4′-chloro-4-methylbiphenyl-3-yl)-1-cyclopropyl-4-hydroxy-1,5-dihydro-2H-pyrrol-2-one] | 797 | 7.61
Cc1ccc(-c2ccc(Cl)cc2)cc1C1=C(O)C2(CC2)OC1=O [Example 2-8, 6-(4′-chloro-4-methylbiphenyl-3-yl)-7-hydroxy-4-oxaspiro[2.4]hept-6-en-5-one] | 420 | > 20
Cc1ccc(-c2ccc(F)cc2F)cc1C1C(=O)N2CCOCCN2C1=O [Example 8-5, 8-(2′,4′-difluoro-4-methylbiphenyl-3-yl)tetrahydro-7H-pyrazolo[1,2-d][1,4,5]oxadiazepine-7,9(8H)-dione] | 2080 | > 20
COC1CCCC2(C1)OC(=O)C(c1cc(-c3ccc(Cl)cc3)ccc1C)=C2O (stereo not drawn) [Example 2-14, 3-(4′-chloro-4-methylbiphenyl-3-yl)-4-hydroxy-7-methoxy-1-oxaspiro[4.5]dec-3-en-2-one] | 562 | 19.4
COC1CCC2(CC1)NC(=O)C(c1cc(-c3cc(F)ccc3F)ccc1C)=C2O (stereo not drawn) [Example 1-80, 3-(2′,5′-difluoro-4-methylbiphenyl-3-yl)-4-hydroxy-8-methoxy-1-azaspiro[4.5]dec-3-en-2-one] | 695 | > 20
Cc1ccc(-c2ccc(Cl)cc2)cc1-c1c(O)c2ccc(Cl)cc2[nH]c1=O [Example 9-11, 7-chloro-3-(4′-chloro-4-methylbiphenyl-3-yl)-4-hydroxyquinolin-2(1H)-one] | 420 | 4.12
Cc1ccc(-c2ccc(Cl)cc2)cc1C1=C(O)C2(CCCCC2)SC1=O [Example 3-2, 3-(4′-chloro-4-methylbiphenyl-3-yl)-4-hydroxy-1-thiaspiro[4.5]dec-3-en-2-one] | 97 | 1.67
CCOCCO[C@@H]1CC[C@@]2(C1)NC(=O)C(c1cc(-c3ccc(Cl)cc3)ccc1C)=C2O (relative stereo) [Example 1-50, rel-(5R,7S)-3-(4′-chloro-4-methylbiphenyl-3-yl)-7-(2-ethoxyethoxy)-4-hydroxy-1-azaspiro[4.4]non-3-en-2-one] | 472 | 6.27
Cc1ccc(-c2ccc(Cl)cc2)c(C)c1C1=C(O)C2(CCC(OCC(F)(F)F)CC2)OC1=O (stereo not drawn) [Example 2-32, 3-(4′-chloro-2,4-dimethylbiphenyl-3-yl)-4-hydroxy-8-(2,2,2-trifluoroethoxy)-1-oxaspiro[4.5]dec-3-en-2-one] | 450 | 1.6
Cc1cc(C)c(-c2ccc(Cl)cc2)cc1C1=C(O)C2(CCSCC2)OC1=O [Example 2-42, 3-(4′-chloro-4,6-dimethylbiphenyl-3-yl)-4-hydroxy-1-oxa-8-thiaspiro[4.5]dec-3-en-2-one] | 357 | 1.02
Cc1ccc(-c2ccc(Cl)cc2)cc1C1=C(O)C2(CCOCC2)NC1=O [Example 1-6, 3-(4′-chloro-4-methylbiphenyl-3-yl)-4-hydroxy-8-oxa-1-azaspiro[4.5]dec-3-en-2-one] | 300 | 5.2
Cc1ccc(-c2ccc(F)cc2)c(C)c1C1C(=O)N2CCOCCN2C1=O [Example 8-7, 8-(4′-fluoro-2,4-dimethylbiphenyl-3-yl)tetrahydro-7H-pyrazolo[1,2-d][1,4,5]oxadiazepine-7,9(8H)-dione] | 2380 | > 20
CC[C@]1(OC)CC[C@@]2(CC1)NC(=O)C(c1c(C)ccc(-c3ccc(Cl)cc3)c1C)=C2O [Example 1-88, (5r,8r)-3-(4′-chloro-2,4-dimethylbiphenyl-3-yl)-8-ethyl-4-hydroxy-8-methoxy-1-azaspiro[4.5]dec-3-en-2-one] | 825 | 6.9
Cc1ccc(-c2ccc(Cl)cc2)cc1C1=C(O)CC(C)(C)CC1=O [Example 7-5, 2-(4′-chloro-4-methylbiphenyl-3-yl)-3-hydroxy-5,5-dimethylcyclohex-2-en-1-one] | 610 | > 20
O=C1C(c2cc(-c3ccc(Cl)cc3)ccc2Cl)C(=O)N2CCCCN12 [Example 8-2, 2-(4,4′-dichlorobiphenyl-3-yl)tetrahydro-1H-pyrazolo[1,2-a]pyridazine-1,3(2H)-dione] | 891 | > 20
COCC1(C)NC(=O)C(c2cc(-c3ccc(Cl)cc3)ccc2C)=C1O (stereo not drawn) [Example 1-46, 3-(4′-chloro-4-methylbiphenyl-3-yl)-4-hydroxy-5-(methoxymethyl)-5-methyl-1,5-dihydro-2H-pyrrol-2-one] | 812 | 15.8
Cc1ccc(-c2ccc(Cl)cc2)cc1C1=C(O)C2(CCC(C(C)C)CC2)NC1=O (stereo not drawn) [Example 1-24, 3-(4′-chloro-4-methylbiphenyl-3-yl)-4-hydroxy-8-(propan-2-yl)-1-azaspiro[4.5]dec-3-en-2-one] | 340 | 0.21

Compound | IC50 [1] [nM] | IC50 [2] [µM]
O=C1C(c2cc(-c3ccc(Cl)c(Cl)c3)ccc2Cl)C(=O)N2CCOCCN12 [Example 8-10, 8-(3′,4,4′-trichlorobiphenyl-3-yl)tetrahydro-7H-pyrazolo[1,2-d][1,4,5]oxadiazepine-7,9(8H)-dione] | 1130 | > 20
Cc1ccc(-c2ccc(Cl)cc2)cc1C1=C(O)C2(CCC3(CC2)OCC(C)CO3)NC1=O (stereo not drawn) [Example 1-66, 3-(4′-chloro-4-methylbiphenyl-3-yl)-4-hydroxy-1′-methyl-9,13-dioxa-1-azadispiro[4.2.5.2]pentadec-3-en-2-one] | 409 | 1.54
Cc1ccc(-c2ccc(Cl)cc2)cc1C1=C(O)C2(CCC3(CC2)OCCCO3)NC1=O [Example 1-59, 3-(4′-chloro-4-methylbiphenyl-3-yl)-4-hydroxy-9,13-dioxa-1-azadispiro[4.2.5.2]pentadec-3-en-2-one] | 427 | 5.2
Cc1ccc(-c2ccc(C(F)(F)F)cc2)cc1-c1c(O)c2ccc(F)cc2[nH]c1=O [Example 9-10, 7-fluoro-4-hydroxy-3-[4-methyl-4′-(trifluoromethyl)biphenyl-3-yl]quinolin-2(1H)-one] | 1690 | > 20
CC1(F)CN2C(=O)C(c3cc(-c4ccc(Cl)cc4)ccc3Cl)C(=O)N2C1 [Example 8-13, 2-(4,4′-dichlorobiphenyl-3-yl)-6-fluoro-6-methyldihydro-1H,5H-pyrazolo[1,2-a]pyrazole-1,3(2H)-dione] | 640 | > 20
O=C1OC2(CCC3(CCCO3)CC2)C(O)=C1c1cc(-c2ccc(Cl)cc2)ccc1Cl (stereo not drawn) [Example 2-27, 3-(4,4′-dichlorobiphenyl-3-yl)-4-hydroxy-1,9-dioxadispiro[4.2.4.2]tetradec-3-en-2-one] | 822 | 4.15
O=C1NC2(CCC3(CC2)OCCCO3)C(O)=C1c1cc(-c2ccc(Cl)cc2)ccc1Cl [Example 1-58, 3-(4,4′-dichlorobiphenyl-3-yl)-4-hydroxy-9,13-dioxa-1-azadispiro[4.2.5.2]pentadec-3-en-2-one] | 362 | 11.5
Cc1ccc(-c2ccc(Cl)cc2)cc1C1=C(O)C2(CCC3(CC2)OC(C)C(C)O3)NC1=O (stereo not drawn) [Example 1-64, 11-(4′-chloro-4-methylbiphenyl-3-yl)-12-hydroxy-2,3-dimethyl-1,4-dioxa-9-azadispiro[4.2.4.2]tetradec-11-en-10-one] | 985 | 16.4
(5r,8r)-3-(4′-chloro-2,4-dimethylbiphenyl-3-yl)-4-hydroxy-8-methoxy-8-methyl-1-azaspiro[4.5]dec-3-en-2-one [Example 1-87] | 540 | 7.3
Cc1ccc(-c2ccc(Cl)cc2)cc1C1=C(O)C(C)(C2CC2)NC1=O (stereo not drawn) [Example 1-86, 3-(4′-chloro-4-methylbiphenyl-3-yl)-5-cyclopropyl-4-hydroxy-5-methyl-1,5-dihydro-2H-pyrrol-2-one] | 541 | 3.3
COC1CCC2(CC1)NC(=O)C(c1c(C)cc(C)c(-c3ccc(Cl)cc3)c1C)=C2O (stereo not drawn) [Example 1-9, 3-(4′-chloro-2,4,6-trimethylbiphenyl-3-yl)-4-hydroxy-8-methoxy-1-azaspiro[4.5]dec-3-en-2-one] | 16600 | 0.626
Cc1ccc(-c2ccc(Cl)cc2)cc1C1=C(O)C(C(C)(C)C)OC1=O (stereo not drawn) [Example 2-35, 5-tert-butyl-3-(4′-chloro-4-methylbiphenyl-3-yl)-4-hydroxyfuran-2(5H)-one] | 1020 | > 20
CCOC1CCC2(CC1)NC(=O)C(c1c(C)cc(C)c(-c3ccc(Cl)cc3)c1C)=C2O (stereo not drawn) [Example 1-75, 3-(4′-chloro-2,4,6-trimethylbiphenyl-3-yl)-8-ethoxy-4-hydroxy-1-azaspiro[4.5]dec-3-en-2-one] | 7970 | 0.376
COCC1CCC2(CC1)NC(=O)C(c1c(C)ccc(-c3ccc(Cl)cc3)c1C)=C2O (stereo not drawn) [Example 1-53, 3-(4′-chloro-2,4-dimethylbiphenyl-3-yl)-4-hydroxy-8-(methoxymethyl)-1-azaspiro[4.5]dec-3-en-2-one] | 506 | 0.214
Cc1ccc(-c2ccc(Cl)cc2)cc1C1=C(O)[C@@]2(CC[C@H](OCC(C)C)C2)NC1=O (relative stereo) [Example 1-49, rel-(5R,7R)-3-(4′-chloro-4-methylbiphenyl-3-yl)-4-hydroxy-7-(2-methylpropoxy)-1-azaspiro[4.4]non-3-en-2-one] | 240 | 9.9
COCCO[C@@H]1CCC[C@]2(C1)NC(=O)C(c1cc(-c3ccc(Cl)cc3)ccc1Cl)=C2O (relative stereo) [Example 1-74, rel-(5R,7R)-3-(4,4′-dichlorobiphenyl-3-yl)-4-hydroxy-7-(2-methoxyethoxy)-1-azaspiro[4.5]dec-3-en-2-one] | 656 | 16.4
